From BindingDB's records for doi:10.1124/jpet.102.046797 (University of Maryland, 2003)

These molecules were tested against T1, Gamma-hydroxybutyrate receptor (Rattus norvegicus, UniProt Q6RY99).
T1 sequence (Q6RY99 whole entry): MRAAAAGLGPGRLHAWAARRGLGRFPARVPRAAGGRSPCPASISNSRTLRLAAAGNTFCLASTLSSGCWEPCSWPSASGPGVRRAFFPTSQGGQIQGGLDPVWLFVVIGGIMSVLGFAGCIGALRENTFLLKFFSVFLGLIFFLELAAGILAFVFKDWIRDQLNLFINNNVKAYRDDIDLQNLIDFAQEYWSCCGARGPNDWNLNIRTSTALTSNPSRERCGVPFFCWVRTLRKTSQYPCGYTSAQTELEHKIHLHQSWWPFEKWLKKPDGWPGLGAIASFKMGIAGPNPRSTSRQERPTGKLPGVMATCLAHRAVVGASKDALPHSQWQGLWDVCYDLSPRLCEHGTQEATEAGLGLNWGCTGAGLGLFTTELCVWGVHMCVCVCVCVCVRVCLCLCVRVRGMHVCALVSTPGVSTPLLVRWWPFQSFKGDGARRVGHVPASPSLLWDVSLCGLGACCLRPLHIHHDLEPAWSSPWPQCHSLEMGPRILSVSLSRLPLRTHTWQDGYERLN
In the case of `CC(C)(O)CCC(=O)O` [UMB68], the Ki is reported as > 10 µM. `O=C(O)/C=C1/CCCc2ccccc2C1O` (centres undefined) [CAS_131413] showed a Ki of 1.8 µM. For `CC(C)(O)CCCC(=O)O` [UMB75], the Ki was > 10 µM. For `O=C(O)CCCCO` [UMB58], the Ki was > 10 µM.
